Test results: US9220928B2, “Plant extracts from Acronychia species and their use” (EcoBiotics Ltd, priority 2008, dated 2015)

Tested on: Streptococcus salivarius K40
Assay: Antibacterial growth inhibition assay
Type: cell-based
Settings: HPLC fractions and two pure compounds, further test; Table 9
Experimental: The bacteria used in these studies were: • Streptococcus salivarius […] • Bacillus subtilis All antibacterial assays were carried out in a laminar flow cabinet using the protocol described below. Growth or no-growth was assessed visually and by ELISA reader. […] This was then placed in the bacterial shaker at 37° C. at 210 rpm overnight. • 2) A blank reading was made on the spectrophotometer at 600 nm using […] of Columbia broth. A reading of 200 μL of the starter culture was then taken. • 3) In calculations, a final concentration of 0.005 was desired. The formula used for dilution of x mL starter was: x*A600=0.005*desired volume • 4) 90 uL of MeOH was added to each well of a 96 well flat bottomed plate. 10 μL of sample was added to the top well and diluted 1:10 down the plate. Alternatively the top rows were left empty of MeOH and 100 μL of sample was added and then diluted at 1:10 down the plate. • 5) The plates were then left to dry in a biological safety cabinet for 2-3 hours or until all solvent had evaporated off the plate. • 6) 100 μL of diluted bacterial culture was then added to each well of the plate. The plate was then placed in the bacterial incubator at 37° C. overnight. […] For quantitation, plates were read at 405 nm (ELISA). […]

SMILES	Amount of fraction giving 100% inhibition of growth of S. salivarius
CC(C)=CCC/C(C)=C/CC/C(C)=C/COc1ccc(CCC(=O)O)cc1 [EBC111, 3-(4-farnesyloxyphenyl)propionic acid]	10Ag
COc1cc(CCC(=O)O)ccc1OC/C=C(\C)CC/C=C(\C)CCC=C(C)C [EBC125, 3-(4-farnesyloxy-3-methoxyphenyl)propionic acid]	1 µL
